# Legend:
# Type in all cases: in vivo
# [1] = system: Echinochloa crus-galli (ECHCG); assay: Test 1A glasshouse assay for herbicidal activity, pre-emergence; conditions: 312 h, 250 g/ha, evaluated after 13 days, read-out: percentage phytotoxicity ECHCG
# Method: (§1) Seeds of a variety of test species were sown in standard soil in pots. After cultivation for one day (pre-emergence) or after 8 days cultivation (post-emergence) under controlled conditions in a glasshouse (at 24/16° C., day/night; 14 hours light; 65% humidity), the plants were sprayed with an aqueous spray solution derived from the formulation of the technical active ingredient in acetone/I water (50:50) solution containing 0.5% Tween 20 (polyoxyethelyene sorbitan monolaurate, CAS RN 9005-64-5). The test plants were then grown in a glasshouse under controlled conditions in a glasshouse (at 24/16° C., day/night; 14 hours light; 65% humidity) and watered twice daily. After 13 days for pre and post-emergence, the test was evaluated visually for percentage phytotoxicity to the plant (where 100=total damage to plant; 0=no damage to plant).
# (§2) Alopecurus myosuroides (ALOMY), Setaria faberi (SETFA), Echinochloa crus-galli (ECHCG), Solanum nigrum (SOLNI), Amaranthus retroflexus (AMARE), Ipomoea hederacea (IPOHE), and Abutilon theophasti Medik. (ABUTH, common English name “velvetleaf”). Of these, Alopecurus myosuroides (ALOMY), Setaria faberi (SETFA), and Echinochloa crus-galli (ECHCG) are grassy monocotyledonous weeds.
# [2] = system: Amaranthus retroflexus (AMARE); assay: as above; conditions: 312 h, 250 g/ha, evaluated after 13 days, read-out: percentage phytotoxicity AMARE
# Method: as §1, §2
# Setaria faberi (SETFA) [3] = assay: as above; conditions: 312 h, 250 g/ha, evaluated after 13 days, read-out: percentage phytotoxicity SETFA
# Method: as §1, §2
# [4] = system: Abutilon theophasti Medik. (ABUTH); assay: as above; conditions: 312 h, 250 g/ha, evaluated after 13 days, read-out: percentage phytotoxicity ABUTH
# Method: as §1, §2
# [5] = system: Alopecurus myosuroides (ALOMY); assay: as above; conditions: 312 h, 250 g/ha, evaluated after 13 days, read-out: percentage phytotoxicity ALOMY
# Method: as §1, §2
# [6] = system: Echinochloa crus-galli (ECHCG); assay: Test 1A glasshouse assay for herbicidal activity, post-emergence; conditions: 312 h, evaluated after 13 days, read-out: percentage phytotoxicity ECHCG
# Method: as §1, §2
# [7] = system: Amaranthus retroflexus (AMARE); assay: as above; conditions: 312 h, evaluated after 13 days, read-out: percentage phytotoxicity AMARE
# Method: as §1, §2
# Setaria faberi (SETFA) [8] = assay: as above; conditions: 312 h, evaluated after 13 days, read-out: percentage phytotoxicity SETFA
# Method: as §1, §2
# [9] = system: Abutilon theophasti Medik. (ABUTH); assay: as above; conditions: 312 h, evaluated after 13 days, read-out: percentage phytotoxicity ABUTH
# Method: as §1, §2
# [10] = system: Alopecurus myosuroides (ALOMY); assay: as above; conditions: 312 h, evaluated after 13 days, read-out: percentage phytotoxicity ALOMY
# Method: as §1, §2
# [11] = system: Echinochloa crus-galli (ECHCG); assay: Biological Example 2 comparative herbicidal data, post-emergence glasshouse screen; conditions: 312 h, read-out: Post-emergence herbicidal activities (percentage phytotoxicity) ECHCG; for pest or weed control at 15.625 g/ha: 15.625 g/ha application rate; for pest or weed control at 62.5 g/ha: 62.5 g/ha application rate
# Method: as §1
# (§3) Comparative herbicidal data is given below for certain exemplified compounds with 4-(prop-1-ynyl)-2,6-dimethylphenyl or 4-(chloroethynyl)-2,6-dimethylphenyl headgroups, compared to the corresponding compounds with either 4-ethynyl-2,6-dimethylphenyl or 2,4,6-trimethylphenyl headgroups, as follows. Comparative herbicidal data is also given below for certain exemplified compounds with 4-(prop-1-ynyl)-2-chloro-6-methoxyphenyl headgroups, compared to the corresponding compounds with 4-ethynyl-2-chloro-6-methoxyphenyl or 4-(but-1-ynyl)-2-chloro-6-methoxyphenyl or 4-methyl-2-chloro-6-methoxyphenyl or 2-chloro-6-methoxyphenyl headgroups, as follows.
# (§4) Except where specified otherwise, the glasshouse screen for herbicidal activity is substantially the same as that presented in Biological Example 1A (Test 1A) hereinabove. The weed abbreviations are as defined in Biological Example 1A.
# Setaria faberi (SETFA) [12] = assay: as above; conditions: 312 h, read-out: Post-emergence herbicidal activities (percentage phytotoxicity) SETFA; for pest or weed control at 15.625 g/ha: 15.625 g/ha application rate; for pest or weed control at 62.5 g/ha: 62.5 g/ha application rate
# Method: as §1, §3, §4
# [13] = system: Alopecurus myosuroides (ALOMY); assay: as above; conditions: 312 h, read-out: Post-emergence herbicidal activities (percentage phytotoxicity) ALOMY; for pest or weed control at 15.625 g/ha: 15.625 g/ha application rate; for pest or weed control at 62.5 g/ha: 62.5 g/ha application rate
# Method: as §1, §3, §4
Compound,pest or weed control at 250 g/ha [1] [%],pest or weed control at 250 g/ha [2] [%],pest or weed control at 250 g/ha (Setaria faberi (SETFA) [3]) [%],pest or weed control at 250 g/ha [4] [%],pest or weed control at 250 g/ha [5] [%],pest or weed control at 30 g/ha [6] [%],pest or weed control at 250 g/ha [6] [%],pest or weed control at 30 g/ha [7] [%],pest or weed control at 250 g/ha [7] [%],pest or weed control at 30 g/ha (Setaria faberi (SETFA) [8]) [%],pest or weed control at 250 g/ha (Setaria faberi (SETFA) [8]) [%],pest or weed control at 30 g/ha [9] [%],pest or weed control at 250 g/ha [9] [%],pest or weed control at 30 g/ha [10] [%],pest or weed control at 250 g/ha [10] [%],further results
"CC#Cc1cc(Cl)c(C2C(=O)CC(CCSC)CC2=O)c(OC)c1 (centres unmarked) [Compound A-23, 2-(2-Chloro-6-methoxy-4-prop-1-ynyl-phenyl)-5-(2-methylsulfanylethyl)cyclohexane-1,3-dione]",100,70,90,30,90,100,100,10,20,100,100,30,70,60,90,–
"C#Cc1cc(C)c(C2C(=O)CC(CC3CCOCC3)CC2=O)c(C)c1 (centres unmarked) [Compound X-3, reference compound]",–,–,–,–,–,–,–,–,–,–,–,–,–,–,–,pest or weed control at 15.625 g/ha [11]: 20%; pest or weed control at 62.5 g/ha [11]: 50%; pest or weed control at 15.625 g/ha (Setaria faberi (SETFA) [12]): 60%; pest or weed control at 62.5 g/ha (Setaria faberi (SETFA) [12]): 70%; pest or weed control at 15.625 g/ha [13]: 30%; pest or weed control at 62.5 g/ha [13]: 60%
"CC#Cc1cc(Cl)c(C2C(=O)C3CCC(C3)C2=O)c(OCC(F)(F)F)c1 (centres unmarked) [Compound A-19, 3-[2-chloro-4-prop-1-ynyl-6-(2,2,2-trifluoroethoxyl)phenyl]bicyclo[3.2.1]octane-2,4-dione]",60,0,60,0,40,–,100,–,0,–,90,–,0,–,70,–
"C#Cc1ccc(C2C(=O)C(C)(C)OC(C)(C)C2=O)c(C)c1 [Compound X-1, reference compound]",–,–,–,–,–,–,–,–,–,–,–,–,–,–,–,pest or weed control at 15.625 g/ha [11]: 0%; pest or weed control at 62.5 g/ha [11]: 0%; pest or weed control at 15.625 g/ha (Setaria faberi (SETFA) [12]): 0%; pest or weed control at 62.5 g/ha (Setaria faberi (SETFA) [12]): 30%; pest or weed control at 15.625 g/ha [13]: 20%; pest or weed control at 62.5 g/ha [13]: 10%
CC#Cc1cc(Cl)c(C2=C(OC(=O)c3ccc(Cl)cc3)CC(C3CCOCC3)CC2=O)c(OC)c1 (centres unmarked) [Compound P-3],100,100,100,80,100,100,100,80,80,100,100,70,80,100,90,pest or weed control at 8 g/ha ([6]; 8 g/ha): 100%; pest or weed control at 8 g/ha ([7]; 8 g/ha): 20%; pest or weed control at 8 g/ha (Setaria faberi (SETFA) [8]; 8 g/ha): 100%; pest or weed control at 8 g/ha ([9]; 8 g/ha): 20%; pest or weed control at 8 g/ha ([10]; 8 g/ha): 90%
"CC#Cc1cc(Cl)c(C2=C(OC(=O)SCC)C3CCC(C3)C2=O)c(OCC(F)(F)F)c1 (centres unmarked) [Compound P-6, [3-[2-Chloro-4-prop-1-ynyl-6-(2,2,2-trifluoroethoxyl)phenyl]-4-oxo-2-bicyclo[3.2.1]oct-2-enyl]ethylsulfanylformate]",–,20,10,0,10,–,80,–,20,–,50,–,0,–,50,–
CC#Cc1ccc(C2C(=O)C3CCC(C3)C2=O)c(Cl)c1 (centres unmarked) [Compound A-11],100,70,80,50,100,–,100,–,30,–,100,–,80,–,100,–
"C#Cc1cc(C)c(C2C(=O)C3CCC(C3)C2=O)c(C)c1 (centres unmarked) [Compound X-2, reference compound]",–,–,–,–,–,–,–,–,–,–,–,–,–,–,–,pest or weed control at 15.625 g/ha [11]: 0%; pest or weed control at 62.5 g/ha [11]: 70%; pest or weed control at 15.625 g/ha (Setaria faberi (SETFA) [12]): 50%; pest or weed control at 62.5 g/ha (Setaria faberi (SETFA) [12]): 60%; pest or weed control at 15.625 g/ha [13]: 0%; pest or weed control at 62.5 g/ha [13]: 10%
CC#Cc1cc(C)c(C2=C(OS(C)(=O)=O)CC(CC3CCOCC3)CC2=O)c(C)c1 (centres unmarked) [Compound P-4],100,20,80,10,80,–,80,–,0,–,80,–,0,–,80,–
CC#Cc1cc(Cl)c(C2=C(OC(=O)C(C)(C)C)C3CCC(C3)C2=O)c(OC)c1 (centres unmarked) [Compound P-7],100,0,100,0,100,100,100,0,0,90,100,10,70,90,100,–
CC#Cc1cc(C)c(C2=C(OC(=O)C(C)(C)C)C3CCC(C3)C2=O)c(C)c1 (centres unmarked) [Compound P-5],100,0,100,0,100,80,100,0,10,70,90,0,70,60,90,–

# From patent publication US9615577B2, “Herbicidally active cyclic dione compounds, or derivatives therefor, substituted by a phenyl which has an alkynyl-containing substituent” (Syngenta Limited, priority 2012, dated 2017)
